Measured values taken from patent US8933122B2, “Use of cationic surfactants as sporicidal agents” (Laboratorios Miret, S.A., priority 2008, dated 2015).

Columns and labels:
[1] = system: Penicillium chrysogenum CECT 2802; details: Fungi; cited from earlier work
[2] = system: Salmonella typhimurium ATCC16028; details: Gram − Bacteria; cited from earlier work
[3] = system: endospores from Bacillus subtilis ATCC 6633; test: Sporicidal activity, quantitative suspension test EN 13704:2002 (Example 1); type: cell-based; details: 20° C.; for Test of LAE sporicidal activity (Na), surviving spores count: 0.3% bovine serum albumin, N 1.8 × 10^7 cfu/mL
Method: The determination of the sporicidal activity of LAE has been carried out according to the European standard EN 13704:2002 “Chemical disinfectant—Quantitative suspension test for the evaluation of sporicidal activity of chemical disinfectants used in food, industrial, domestic and institutional areas—Test method and requirements”.
A test suspension containing endospores from Bacillus subtilis ATCC 6633 was prepared from a culture grown on a nutrient agar, to which additional sporulation enhancement ingredients were added. Plates were harvested with sterile water and endospores were purified by repeated centrifugations and resuspensions in water.
Neutralizer. The neutralizer mixture consisted of 12.7% polysorbate 80, 6.0% Tamol® SN (brand of sodium salt of naphthalene-formaldehyde condensate), 1.7% lecithin, 1% peptone and 0.1% cystine. The solution was intended to neutralize any chemicals so that these would not affect subsequent growth of the bacteria.
The sporicidal activity of a given product is defined by its capacity to reduce at least by 10^3 the amount of Bacillus subtilis bacterial spores in suspension, in the conditions established in the method.
The product was in contact with a suspension of bacterial spores during an established period of time of 60 minutes. An interfering substance can be added to the suspension, in this case 0.3% bovine serum albumin in distilled water. Next, the effect of the product is neutralized by adding a neutralizer previously chosen, preceding to the surviving spores count.
• 1. Spore suspension obtained from a spored-form culture of Bacillus subtilis. • 2. Count of the spore suspension of Bacillus subtilis. • 3. The possible toxic effect of the neutralizer on the spores in the absence of the product is valued. • 4. Evaluation of the neutralizing effect of the neutralizer over the product. • 4. Evaluation of the inhibitory effect of the product. • 5. Result calculation. Results: Results are expressed as the reduction of viability of the spore suspension in regards to:
(§1) Tabulation of the Method and Test Validation Results (at 20° C.):
The sporicidal activity is calculated as follows: R=N×0.1/Na N is cfu/mL of the spore suspension. Na is cfu/mL of the sporicidal activity. The calculated reduction of a solution of: • 50 ppm of LAE is R=3.5×10^2 cfu/mL • 100 ppm of LAE is R=3.4×10^2 cfu/mL • 150 ppm of LAE is R=4.3×10^2 cfu/mL • 250 ppm of LAE is R>10^3 cfu/mL
A product is considered sporicidal if its use results in a reduction in the number of Bacillus subtilis bacterial spores equal or above 10^3 after being in contact for 60 minutes in the conditions set in […].

[4] = system: Rhodotorula rubra CECT 1158; details: Yeast; cited from earlier work
[5] = system: Micrococcus luteus ATCC 9631; details: Gram + Bacteria; cited from earlier work
[6] = system: Penicillium funiculosum CECT 2914; details: Fungi; cited from earlier work
[7] = system: Gliocadium virens ATCC 4645; details: Fungi; cited from earlier work
[8] = system: Candida albicans ATCC 10231; details: Yeast; cited from earlier work
Escherichia coli 0157H7 = details: Gram − Bacteria; cited from earlier work
[9] = system: Proteus mirabilis CECT 170; details: Gram − Bacteria; cited from earlier work
[10] = rats; cited from earlier work
[11] = system: Aspergillus niger fungical spores; test: Fungicide activity, UNE-EN 1275 (Example 2); type: cell-based; details: 20° C.; for Test of LAE fungicide activity (Na), surviving spores count: N 5 × 10^7 cfu/mL
Description: The determination of the fungicide activity of LAE has been carried out according to the European standard UNE-EN 1275: “Chemical disinfectant and antiseptic. Fungicide activity. Test method and requirements”.
The fungicide activity of a given product is defined by its capacity to reduce at least by 10^4 the amount of Aspergillus niger fungical spores in suspension, in the conditions established in the method.
The product is in contact with a suspension of fungical spores during an established period of time (60 minutes). After this time, the effect of the product is neutralized by adding Polysorbate 80 in water solution at 2%, preceding to the surviving spores count.
• 1. Spore suspension obtained from a spored-form culture of Aspergillus niger. • 2. Count of the spore suspension of Aspergillus niger. • 3. The possible toxic effect of the neutralizer on the spores in the absence of the product is valued. • 4. Evaluation of the neutralizing effect of the neutralizer over the product. • 5. Evaluation of the fungicide effect of the product. • 6. Result calculation. Results:
as §1
Fungicide activity is calculated as follows: R=N×0.1/Na N cfu/mL of the fungical spore suspension Na cfu/mL of the fungicide activity The calculated reduction of a solution of: • 100 μg/mL of LAE is R=3.1×10^2 cfu/mL • 200 μg/mL of LAE is R=1.3×10^3 cfu/mL • 300 μg/mL of LAE is R=1.4×10^3 cfu/mL • 400 μg/mL of LAE is R=1.7×10^3 cfu/mL • 500 μg/mL of LAE is R>10^4 cfu/mL
A product is considered fungicide if its use results in a reduction in the number of Aspergillus niger fungical spores equal to or above 10^4 after being in contact for 60 minutes in the conditions set in UNE-EN 1275.

[12] = animals and humans; cited from earlier work
[13] = LAE 12.5 μg/mL, 60 minutes contact
[14] = LAE 25 μg/mL, 60 minutes contact
[15] = LAE 50 μg/mL, 60 minutes contact
[16] = LAE 100 μg/mL, 60 minutes contact
[17] = LAE 300 μg/mL, 60 minutes contact

CCCCCCCCCCCC(=O)N[C@@H](CCCN=C(N)N)C(=O)OCC.Cl [LAE, ethyl ester of the lauramide of the arginine monohydrochloride]
M.I.C. [1]: 128 ppm | M.I.C. [2]: 32 ppm | calculated reduction R=N×0.1/Na ([3]; 50 ppm of LAE, 60 minutes): 3.5×10^2 cfu/mL | calculated reduction R=N×0.1/Na ([3]; 100 ppm of LAE, 60 minutes): 3.4×10^2 cfu/mL | calculated reduction R=N×0.1/Na ([3]; 150 ppm of LAE, 60 minutes): 4.3×10^2 cfu/mL | calculated reduction R=N×0.1/Na ([3]; 250 ppm of LAE, 60 minutes): > 10^3 cfu/mL | concentration displaying sporicidal activity (reduction equal or above 10^3) ([3]; 60 minutes contact, EN 13704): ≥ 250 ppm | LAE concentration from which there is inhibition of spore germination ([3]; 60 minutes): ≥ 50 ppm | Test of LAE sporicidal activity (Na), surviving spores count [3, 13]: >300 cfu/mL | Test of LAE sporicidal activity (Na), surviving spores count [3, 14]: >300 cfu/mL | Test of LAE sporicidal activity (Na), surviving spores count [3, 15]: 5.2 × 10^3 cfu/mL | Test of LAE sporicidal activity (Na), surviving spores count [3, 16]: 5.3 × 10^3 cfu/mL | Test of LAE sporicidal activity (Na), surviving spores count ([3]; LAE 150 μg/mL, 60 minutes contact): 4.2 × 10^3 cfu/mL | Test of LAE sporicidal activity (Na), surviving spores count ([3]; LAE 250 μg/mL, 60 minutes contact): No | Test of LAE sporicidal activity (Na), surviving spores count [3, 17]: No | M.I.C. [4]: 16 ppm | M.I.C. [5]: 128 ppm | M.I.C. [6]: 16 ppm | M.I.C. [7]: 32 ppm | M.I.C. [8]: 16 ppm | M.I.C. (Escherichia coli 0157H7): 20 ppm | M.I.C. [9]: 32 ppm | absorption and metabolism [10]: fast absorption and metabolization into naturally-occurring amino acids and the fatty acid lauric acid, which are eventually excreted as carbon dioxide and urea | calculated reduction R=N×0.1/Na ([11]; 100 μg/mL of LAE, 60 minutes): 3.1×10^2 cfu/mL | calculated reduction R=N×0.1/Na ([11]; 200 μg/mL of LAE, 60 minutes): 1.3×10^3 cfu/mL | calculated reduction R=N×0.1/Na ([11]; 300 μg/mL of LAE, 60 minutes): 1.4×10^3 cfu/mL | calculated reduction R=N×0.1/Na ([11]; 400 μg/mL of LAE, 60 minutes): 1.7×10^3 cfu/mL | calculated reduction R=N×0.1/Na ([11]; 500 μg/mL of LAE, 60 minutes): > 10^4 cfu/mL | concentration at which fungicide active (reduction equal to or above 10^4) ([11]; 60 minutes contact, UNE-EN 1275): ≥ 500 ppm | concentration from which a total inhibition of fungical spore germination has been observed ([11]; 60 minutes): ≥ 500 ppm | concentration from which there is inhibition of fungical spore germination ([11]; 60 minutes): ≥ 100 ppm | Test of LAE fungicide activity (Na), surviving spores count [11, 13]: >300 cfu/mL | Test of LAE fungicide activity (Na), surviving spores count [11, 14]: >300 cfu/mL | Test of LAE fungicide activity (Na), surviving spores count [11, 15]: >300 cfu/mL | Test of LAE fungicide activity (Na), surviving spores count [11, 16]: 1.6 × 10^4 cfu/mL | Test of LAE fungicide activity (Na), surviving spores count ([11]; LAE 200 μg/mL, 60 minutes contact): 3.9 × 10^3 cfu/mL | Test of LAE fungicide activity (Na), surviving spores count [11, 17]: 3.5 × 10^3 cfu/mL | Test of LAE fungicide activity (Na), surviving spores count ([11]; LAE 400 μg/mL, 60 minutes contact): 3.0 × 10^3 cfu/mL | Test of LAE fungicide activity (Na), surviving spores count ([11]; LAE 500 μg/mL, 60 minutes contact): No | Test of LAE fungicide activity (Na), surviving spores count ([11]; LAE 1000 μg/mL, 60 minutes contact): No | toxicological finding [12]: completely harmless to animals and humans
